Laboratory results as given in article PMC7402526, “An in vitro quantitative systems pharmacology approach for deconvolving mechanisms of drug-induced, multilineage cytopenias” (PLoS Computational Biology, 2020).
pEC50: −log10 of the molar value.

Columns and labels:
[1] = test system: late erythroid cells (Eryth II); assay: MLTA, ErythII: concentration-response and QSP model fit; format: cell-based, human; settings: Homo sapiens, 144 h
Procedure: (§1) A custom optimized cytokine cocktail was developed using commercially available cytokines (Peprotech, New Jersey) to facilitate simultaneous multi-lineage differentiation and self-renewal of freeze-thawed primary human bone marrow-derived CD34+ cells in SFEM II media (cells and media from StemCell Technologies, Vancouver). Cultures were carried out in ultra-low attachment 96-well plates (Corning, New York) with test article added on day 0 and cultured at 37°C, 85% relative humidity, and 5% CO2 for six days before interrogating drug impact via 17-parameter flow cytometry.
(§2) The flow cytometry panel used to define hematopoietic subsets was composed of CD34-PECy7, CD90-PECY5, CD38-AF488, CD371-PE, CD45Ra-BV421, CD14-BV605, CD42b-AF647, CD10-PEDazzle594, CD235a-PerCPCy5.5 (BioLegend, California), CD15-BUV395, CD41a-APCH7, CD71-BV786 (BD Biosciences, California), and DAPI for dead cell exclusion (ThermoFisher, California). In short, Day 6 cells were harvested, FcR-blocked (FcR binding inhibitor, ThermoFisher), surface-stained, then analyzed in a buffer containing TruCount Control Beads using a BD LSR Fortessa SORP fitted with a high-throughput sampler (BD Biosciences, California). Data was analyzed in Diva 6.0.2 and exported to CSV where after all cell data was transformed to cell per mL then normalized on a per-donor basis to untreated control wells to determine drug impact.
(§3) Donor material was collected and cultured as described above. The number of replicate donor samples per drug ranged from 2–7 and varied per drug (S1 Table). Drug treatment was added at time 0 and cells were maintained in culture for 6 days. Concentrations tested for each drug compound are contained in S1 Table. Concentrations were selected to span a range that is clinically useful. Following treatment, cell populations were measured using flow cytometry. We extracted cell counts from flow cytometry data, normalized to bead counts, and corrected for well volume.
(§4) Each well was normalized to the average of six vehicle control wells. For drugs that were tested across multiple runs of the assay, vehicle-normalized donor data were pooled, and we used the average of these pooled data for further modeling. Normalized data used as model inputs are included in S1 Table.
(§5) We implemented drug effects using an Emax model for the drug’s effect on each cell type. The 13 maximum effect parameters (EmaxT,C) are unitless and can vary between 0 and 2 and where a subscript, C, represents one of the previously described 13 cell types. We adapted a traditional Emax model using the equations below. We interpreted EmaxT values less than or equal to one as anti-proliferative, and EmaxT values greater than one as indicating a cell-killing mechanism in addition to anti-proliferation. The relationships for these effects are included in the model using the following equations. Eq 2 describes the drug anti-proliferative effect in the net proliferation rate for a given cell type. Eq 3 describes the cell-killing EmaxCK effect.
(§6) Towards the estimation of mechanistic parameters, we considered different formulations: (a) weighting the objective value to prioritize fitting dead cells and (b) using regularization methodology to encourage a parsimonious solution. We assessed the contributions of these formulations using mean-squared error and goodness of fit plots for drugs with known mechanisms. […] Further, we used L1 regularization to penalize parameters […] to help identify a parsimonious set of parameters to explain drug effects.

granulocytes (Gran-lin) = assay: MLTA, Gran: concentration-response and QSP model fit; format: cell-based, human; settings: Homo sapiens, 144 h
Procedure: as §1, §2, §3, §4, §5, §6

[2] = test system: total dead cells (totalDeadCells); assay: MLTA, total dead cells concentration-response; format: cell-based; settings: Homo sapiens, 144 h, 6 days, normalized to vehicle control, read-out: total_dead normalized cell count
Procedure: as §1, §2, §3, §4

B cells (B-lin) = assay: MLTA, B-lin: concentration-response and QSP model fit; format: cell-based, human; settings: Homo sapiens, B-cell, 144 h
Procedure: as §1, §2, §3, §4, §5, §6

[3] = test system: multi-potent progenitors (MPPs); assay: MLTA, MPPs: concentration-response and QSP model fit; format: cell-based, human; settings: Homo sapiens, 144 h
Procedure: as §1, §2, §3, §4, §5, §6

MK cells (MK-lin) = assay: MLTA, MK: concentration-response and QSP model fit; format: cell-based, human; settings: Homo sapiens, 144 h
Procedure: as §1, §2, §3, §4, §5, §6

[4] = test system: granulocyte-macrophage progenitor (GMPs); assay: MLTA, GMPs: concentration-response and QSP model fit; format: cell-based, human; settings: Homo sapiens, 144 h
Procedure: as §1, §2, §3, §4, §5, §6

[5] = test system: neutrophils (neutrophil-lin); assay: MLTA, Neut: concentration-response and QSP model fit; format: cell-based, human; settings: Homo sapiens, Neutrophil, 144 h
Procedure: as §1, §2, §3, §4, §5, §6

[6] = QSP model fit of 6-day MLTA data

`CN(C)C(=O)c1cc2cnc(Nc3ccc(N4CCNCC4)cn3)nc2n1C1CCCC1` [ribociclib] was tested, and the pEC50 ([1]; QSP model fit of 6-day MLTA data, read-out: EC50ErythII) was 6.65, the activity at 0.0002 µM ([1]; dose 0.2 nM, 6 days, normalized to vehicle control, read-out: ErythII normalized cell count) was 84.3% and the activity at 0.001 µM ([1]; dose 1 nM, 6 days, normalized to vehicle control, read-out: ErythII normalized cell count) was 97.7%. For the same molecule, the activity at 0.005 µM ([1]; dose 5 nM, 6 days, normalized to vehicle control, read-out: ErythII normalized cell count) was 113%, the activity at 0.025 µM ([1]; dose 25 nM, 6 days, normalized to vehicle control, read-out: ErythII normalized cell count) was 81.4% and the activity at 0.1 µM ([1]; dose 100 nM, 6 days, normalized to vehicle control, read-out: ErythII normalized cell count) was 79.8%. For the same molecule, the activity at 0.5 µM ([1]; dose 500 nM, 6 days, normalized to vehicle control, read-out: ErythII normalized cell count) was 66.7%, the activity at 2.5 µM ([1]; dose 2500 nM, 6 days, normalized to vehicle control, read-out: ErythII normalized cell count) was 33.6% and the Emax ([1]; parameter from QSP model fitting, read-out: Emax_drug_ErythroidII) was 10.8%. The activity at 0.0002 µM (granulocytes (Gran-lin); dose 0.2 nM, 6 days, normalized to vehicle control, read-out: Gran normalized cell count) was 92.9%, the activity at 0.001 µM (granulocytes (Gran-lin); dose 1 nM, 6 days, normalized to vehicle control, read-out: Gran normalized cell count) was 98.1% and the activity at 0.005 µM (granulocytes (Gran-lin); dose 5 nM, 6 days, normalized to vehicle control, read-out: Gran normalized cell count) was 109%. For the same molecule, the activity at 0.025 µM (granulocytes (Gran-lin); dose 25 nM, 6 days, normalized to vehicle control, read-out: Gran normalized cell count) was 74.6%, the activity at 0.1 µM (granulocytes (Gran-lin); dose 100 nM, 6 days, normalized to vehicle control, read-out: Gran normalized cell count) was 50.7% and the activity at 0.5 µM (granulocytes (Gran-lin); dose 500 nM, 6 days, normalized to vehicle control, read-out: Gran normalized cell count) was 23.7%. It also gave an activity at 2.5 µM (granulocytes (Gran-lin); dose 2500 nM, 6 days, normalized to vehicle control, read-out: Gran normalized cell count) of 6.7%, an Emax (granulocytes (Gran-lin); parameter from QSP model fitting, read-out: Emax_drug_Gran) of 0.0359% and an activity at 0.0002 µM ([2]; dose 0.2 nM) of 117%. The activity at 0.001 µM ([2]; dose 1 nM) was 117%, the activity at 0.005 µM ([2]; dose 5 nM) was 129% and the activity at 0.025 µM ([2]; dose 25 nM) was 81.1%. For the same molecule, the activity at 0.1 µM ([2]; dose 100 nM) was 60%, the activity at 0.5 µM ([2]; dose 500 nM) was 32.1% and the activity at 2.5 µM ([2]; dose 2500 nM) was 27.8%. For the same molecule, the pEC50 (B cells (B-lin); [6]) was 7.45, the activity at 0.0002 µM (B cells (B-lin); dose 0.2 nM, 6 days, normalized to vehicle control, read-out: B-lin normalized cell count) was 74.3% and the activity at 0.001 µM (B cells (B-lin); dose 1 nM, 6 days, normalized to vehicle control, read-out: B-lin normalized cell count) was 107%. The activity at 0.005 µM (B cells (B-lin); dose 5 nM, 6 days, normalized to vehicle control, read-out: B-lin normalized cell count) was 79.4%, the activity at 0.025 µM (B cells (B-lin); dose 25 nM, 6 days, normalized to vehicle control, read-out: B-lin normalized cell count) was 61.2% and the activity at 0.1 µM (B cells (B-lin); dose 100 nM, 6 days, normalized to vehicle control, read-out: B-lin normalized cell count) was 46.3%. It also gave an activity at 0.5 µM (B cells (B-lin); dose 500 nM, 6 days, normalized to vehicle control, read-out: B-lin normalized cell count) of 28%, an activity at 2.5 µM (B cells (B-lin); dose 2500 nM, 6 days, normalized to vehicle control, read-out: B-lin normalized cell count) of 28.3% and an Emax (B cells (B-lin); parameter from QSP model fitting, read-out: Emax_drug_B) of 30.5%. It also gave an activity at 0.0002 µM ([3]; dose 0.2 nM, 6 days, normalized to vehicle control, read-out: MPPs normalized cell count) of 81.4%, an activity at 0.001 µM ([3]; dose 1 nM, 6 days, normalized to vehicle control, read-out: MPPs normalized cell count) of 91.9% and an activity at 0.005 µM ([3]; dose 5 nM, 6 days, normalized to vehicle control, read-out: MPPs normalized cell count) of 83.8%. It also gave an activity at 0.025 µM ([3]; dose 25 nM, 6 days, normalized to vehicle control, read-out: MPPs normalized cell count) of 63.7%, an activity at 0.1 µM ([3]; dose 100 nM, 6 days, normalized to vehicle control, read-out: MPPs normalized cell count) of 46.9% and an activity at 0.5 µM ([3]; dose 500 nM, 6 days, normalized to vehicle control, read-out: MPPs normalized cell count) of 28.4%. The activity at 2.5 µM ([3]; dose 2500 nM, 6 days, normalized to vehicle control, read-out: MPPs normalized cell count) was 16.9%, the Emax ([3]; parameter from QSP model fitting, read-out: Emax_drug_MPP) was 0.0237% and the pEC50 (MK cells (MK-lin); [6]) was 5.69. The activity at 0.0002 µM (MK cells (MK-lin); dose 0.2 nM, 6 days, normalized to vehicle control, read-out: MK normalized cell count) was 102%, the activity at 0.001 µM (MK cells (MK-lin); dose 1 nM, 6 days, normalized to vehicle control, read-out: MK normalized cell count) was 98.3% and the activity at 0.005 µM (MK cells (MK-lin); dose 5 nM, 6 days, normalized to vehicle control, read-out: MK normalized cell count) was 91.7%. For the same molecule, the activity at 0.025 µM (MK cells (MK-lin); dose 25 nM, 6 days, normalized to vehicle control, read-out: MK normalized cell count) was 83.6%, the activity at 0.1 µM (MK cells (MK-lin); dose 100 nM, 6 days, normalized to vehicle control, read-out: MK normalized cell count) was 101% and the activity at 0.5 µM (MK cells (MK-lin); dose 500 nM, 6 days, normalized to vehicle control, read-out: MK normalized cell count) was 64.4%. The activity at 2.5 µM (MK cells (MK-lin); dose 2500 nM, 6 days, normalized to vehicle control, read-out: MK normalized cell count) was 27.7%, the Emax (MK cells (MK-lin); parameter from QSP model fitting, read-out: Emax_drug_MK) was 4.81% and the pEC50 [4, 6] was 6.85. For the same molecule, the activity at 0.0002 µM ([4]; dose 0.2 nM, 6 days, normalized to vehicle control, read-out: GMPs normalized cell count) was 91.2%, the activity at 0.001 µM ([4]; dose 1 nM, 6 days, normalized to vehicle control, read-out: GMPs normalized cell count) was 92.5% and the activity at 0.005 µM ([4]; dose 5 nM, 6 days, normalized to vehicle control, read-out: GMPs normalized cell count) was 103%. The activity at 0.025 µM ([4]; dose 25 nM, 6 days, normalized to vehicle control, read-out: GMPs normalized cell count) was 85%, the activity at 0.1 µM ([4]; dose 100 nM, 6 days, normalized to vehicle control, read-out: GMPs normalized cell count) was 73.4% and the activity at 0.5 µM ([4]; dose 500 nM, 6 days, normalized to vehicle control, read-out: GMPs normalized cell count) was 54.4%. It also gave an activity at 2.5 µM ([4]; dose 2500 nM, 6 days, normalized to vehicle control, read-out: GMPs normalized cell count) of 29.5%, a pEC50 [5, 6] of 6.75 and an activity at 0.0002 µM ([5]; dose 0.2 nM, 6 days, normalized to vehicle control, read-out: Neut normalized cell count) of 77.2%. The activity at 0.001 µM ([5]; dose 1 nM, 6 days, normalized to vehicle control, read-out: Neut normalized cell count) was 83.1%, the activity at 0.005 µM ([5]; dose 5 nM, 6 days, normalized to vehicle control, read-out: Neut normalized cell count) was 96.4% and the activity at 0.025 µM ([5]; dose 25 nM, 6 days, normalized to vehicle control, read-out: Neut normalized cell count) was 65.4%. It also gave an activity at 0.1 µM ([5]; dose 100 nM, 6 days, normalized to vehicle control, read-out: Neut normalized cell count) of 52.7%, an activity at 0.5 µM ([5]; dose 500 nM, 6 days, normalized to vehicle control, read-out: Neut normalized cell count) of 25.1% and an activity at 2.5 µM ([5]; dose 2500 nM, 6 days, normalized to vehicle control, read-out: Neut normalized cell count) of 4.85%. The Emax ([5]; parameter from QSP model fitting, read-out: Emax_drug_Neut) was 13.9%.
